Measurements reported in US20030157704A1, “Reagents and methods for identifying and modulating expression of genes regulated by CDK inhibitors” (priority 2001, published 2003).

Legend:
NFκB-dependent promoter = experiment: Transient transfection of pNFkB-Luc into HT1080 p21-9 cells, firefly luciferase; format: cell-based, human; conditions: different concentrations of IPTG
From the text: To determine if IPTG-inducible p21 expression in HT1080 p21-9 cells stimulates the transcriptional activity of NFκB, we have used transient transfection assays to investigate the effect of p21 induction on luciferase expression from the plasmid pNFkB-Luc, commercially available from Stratagene. This plasmid expresses firefly luciferase from an artificial promoter containing five tandemly repeated NFκB consensus sequences. We have also generated by PCR a version of the same promoter that contains only one NFκB consensus sequence using primers identified as SEQ ID Nos. 80 and 83. The sequences of these two promoters are identified as SEQ ID NOs. 78 and 79.
The ability of p21 to induce these promoters was tested by transient transfection assays, as described in Example 8, using different concentrations of IPTG that induce p21 to different levels.
This plasmid is referred to below as IKK. To determine the effect of p300/CBP inhibition on luciferase expression from pNFkB-Luc, the latter plasmid was similarly mixed in another assay with a vector expressing a truncated gene for adenoviral E1A protein with a C-terminal deletion {ΔCR2 (120-140)}. […] The E1AΔCR2 and E1AΔN/ΔCR2 constructs were provided by Dr. V. Ogryzko (NICHHD, NIH). […] The firefly luciferase activity was measured and normalized to Renilla luciferase activity measured (in the absence of IPTG) in each transfected sample.

HS 15.T cells = experiment: Mitogenic activity assay, 3H-thymidine incorporation; format: cell-based, human; conditions: 60 hr in media then 24 hrs 3H-thymidine
Description: (§1) To verify the induction of secreted mitogenic and anti-apoptotic factors by p21, conditioned media from IPTG-treated HT1080 p21-9 cells were tested to investigate whether they would have an effect on cell growth and apoptosis. In these experiments, conditioned media were prepared by plating 10^6 HT1080 p21-9 cells per 15 cm plate in the presence of DMEM/10% FCS. The next day, IPTG was added to a final concentration of 50 μM, and this media was replaced three days later with DMEM supplemented with 0.5% FCS and 50 μM IPTG. Two days later (days 3-5 of IPTG treatment), this conditioned media was collected and stored at 4° C. up to 15 days before use. Control media were prepared by adding IPTG-free DMEM/0.5% FCS to untreated cells grown to the same density as IPTG-treated cells and collecting the media two days thereafter.
The slow-growing human fibrosarcoma cell line HS 15.T was used to detect mitogenic activity in these conditioned media. For mitogenic activity assays, both types of conditioned media, as well as fresh media and 1:1 mixtures of conditioned media and fresh media were used to test mitogenic activity. In these experiments, the conditioned media were supplemented with 1% or 2% FCS. […] Cells were then collected and their ^3H-thymidine incorporation determined as described by Mosca et al. (1992, Mol. Cell. Biol. 12: 4375-4383).

C8 cells = experiment: Apoptosis assay in serum-starved C8 cells; format: cell-based, mouse; conditions: addition of IPTG by itself
Description: as §1
The effect of this conditioned media on apoptosis was also determined. […] Apoptosis was analyzed by plating 3×10^5 C8 cells per 6-cm plate, and replacing the media on the following day with fresh media supplemented with 0.4% serum or with conditioned media (no fresh serum added). DNA content analysis and DAPI staining were carried out after 24 hrs and 48 hrs, and relative cell numbers were measured by methylene blue staining (Perry et al., 1992, Mutat. Res. 276: 189-197) after 48 hrs in low-serum media.

HT1080 p21-9 cells = experiment: Cell cycle distribution by FACS analysis of DNA content; format: cell-based, human; conditions: 24 hrs of IPTG treatment
Description: Cell cycle distribution was determined using FACS analysis of DNA content after staining with propidium iodide as described by Jordan et al. (1996, Cancer Res. 56: 816-825) using Becton Dickinson FACSort. Cell cycle distribution stabilized after 24 hrs of IPTG treatment. By this time, 42-43% of IPTG-treated cells were arrested in G1 and G2, respectively, and about 15% of the cells were arrested with S-phase DNA content. IPTG-treated HT1080 p21-9 cells also developed morphological senescence markers (enlarged and flattened morphology and increased granularity), as well as SA-β-gal activity (Chang et al., 1999, ibid.).

HT1080 p27-2 cells = experiment: as above; format: cell-based, human; conditions: 50 μM IPTG, 24 hrs
Description: This cell population was subcloned, and 20 clonal cell lines were isolated and tested for IPTG-inducible growth inhibition. Cell line showing the strongest growth inhibition was designated HT1080 p16-5. This cell line has been deposited on Jan. 31, 2002 in the American Type Culture Collection (A.T.C.C.), Manassas, Va. and given Accession Number PTA-4020. […] Fractions of cells in different phases of the cell cycle were determined using FACS analysis of DNA content after staining with propidium iodide as described by Jordan et al. (1996, Cancer Res. 56:816-825) using Becton Dickinson FACSort. Cell cycle distribution stabilized after 24 hrs of IPTG treatment, by which time 93% of IPTG-treated cells were arrested in G1. Such G1 arrest is expected from the inhibition of CDK4/6 by p16.
Similarly, the G418-selected population of LNp27RO2 transduced cells was subcloned, and 38 clonal cell lines were isolated and tested for IPTG-inducible growth inhibition. Cell line showing the strongest growth inhibition was designated HT1080 p27-2. This cell line has been deposited on Jan. 31, 2002 in the American Type Culture Collection (A.T.C .C.), Manassas, Va. and given Accession Number PTA-4021. […] Cell cycle distribution stabilized after 24 hrs of IPTG treatment, by which time 89% of IPTG-treated cells were arrested in G1. Such G1 arrest is expected from the inhibition of CDK4/6 by p16.

In the case of `CC(C)S[C@@H]1O[C@H](CO)[C@H](O)[C@H](O)[C@H]1O` [IPTG, isopropyl-β-thiogalactoside], the “induction of promoters containing five or one NFκB site” value (NFκB-dependent promoter) is reported as “dose-dependent induction”, the 3H-thymidine incorporation (HS 15.T cells) is reported as “no effect” and the “apoptosis in C8 cells” value (C8 cells) is reported as “no effect”. For the same compound, the “cells arrested in G1 and G2, respectively” value (HT1080 p21-9 cells) was 42-43%, the “cells arrested with S-phase DNA content” value (HT1080 p21-9 cells) was “about 15%” and the “cells arrested in G1” value (HT1080 p27-2 cells) was 89%.
